Molecules are shown by their SMILES. The source made the active and inactive calls. The calls are words filed in the database; no cut-off is given here.

The test relates to 4T1. In words: Induction of pyroptosis in mouse 4T1 cells assessed as appearance of large bubbles in cell at 0.5 uM preincubated with compound for 4 hrs followed by light irradiation of 20 mW.cm/2 at 400 to 700nm for 10 mins by confocal fluorescence microscopy analysis. The test is classed as functional, cell-based.

As to `O=c1cc2sc3cc(N4CCNCC4)ccc3nc-2c2ccccc12`, the result was Active.

These data come from ChEMBL document CHEMBL6096728, “Simultaneous Induction of Immunogenic Pyroptosis and PD-L1 Downregulation by One Single Photosensitizer for Synergistic Cancer Photoimmunotherapy” (J Med Chem, 2025).
